Data reported in patent US11613552B2, “Pharmaceutical agents, compositions, and methods relating thereto” (Alltech, Inc., priority 2017, dated 2023).

Key:
[1] = system: H4IIE cells; assay: Glucose production assay in H4IIE cells; format: cell-based, rat
Method: Equal numbers of Human HepG2 or rat H4IIE cells (1-1.5×10^5 cells/well) were seeded on 96 well plates in 10% FBS-containing media for 24 hr. Cells were then washed twice with PBS, and treated with various concentrations of compounds, metformin or insulin in 100 μl of glucose production media (glucose-free, phenol red-free DMEM media supplemented with 20 mM sodium lactate, 2 mM sodium pyruvate and 5 mM HEPES) at 37° C. for 24 hr (H4IIE cells only) or 48 hr (HepG2 cell only). Cells were also incubated with 0.24% DMSO (the maximal volume of DMSO solvent used in the experiments).
After the above treatments, 50 μl of culture media were collected, and subjected to glucose analysis using Molecular Probes Amplex Red glucose assay kit (Cat #A22189) according to the manufacturer's protocol. Cell numbers or viability in the culture plate after the above compound treatments were determined using Promega's CellTiter96® AQueous One Solution Cell Proliferation Assay kits, according to the manufacturer's protocol and instructions. In brief, after removing 50 μl of culture media for glucose assay, cells were incubated with AQueous One solution (25 μl stock solution and 50 μl prewarmed PBS/per well) at 37° C. for 1 hour, and the absorbance of OD490 nm in each sample was determined by the Bio-Tek microplate reader. Cell viability in culture wells were determined by the subtraction of OD490 nm in cultured cells with the OD490 nm in plain culture media (without seeding of cells). Glucose production in the culture cells were obtained by normalizing the glucose concentration in culture media by cell viability in each well. At least 3 samples per each treatment were examined for the above analysis. Data are presented as Mean±SEM of those samples. Experiments were repeated at least twice.
The half maximal inhibitory concentration (IC50 values) of Compound #43 or metformin for the inhibition of glucose production were determined using the ED50 Plus v1.0 online software.

[2] = system: Pdk1/Akt/Foxo1; assay: Western blot of Pdk1/Akt/Foxo1 in skeletal muscles of Lepr^db/db mice; format: in vivo, mouse; settings: 0.136 mg/kg ip daily, 52 days (FIG. 18)
Method: Male Lepr^db/db mice (C57BL/6J strain, purchased from The Jackson Laboratory) at 38 days of age were intraperitoneally injected daily with physiological saline ([…]) containing 0.2% DMSO or 0.136 mg of Compound #43 per kilogram body weight, diluted in the sterile physiological saline) for 52 days. After the treatment, gastrocnemius skeletal muscle samples were collected and stored at −80° C.
Frozen skeletal muscles were minced in sterile ice-old PBS containing complete proteinase and phosphatase inhibitors (Thermo-Fisher Scientific, Waltham, Mass.) and subjected to homogenization using a tissue homogenizer (Thermo-Fisher Scientific, Waltham, Mass.). These tissue homogenates were diluted in Themo-Fisher's RIPA buffer (1 part homogenate/2 part of RIPA buffer) containing complete proteinase/phosphatase inhibitors to extract the proteins. Proteins in the homogenates were extracted in RIPA buffer at 4° C. overnight. These overnight-extracted protein/tissue lysates were centrifuged at 12000×g for 30 min at 4° C., and the protein levels in the supernatant of these tissue lysates were determined using the Pierce Micro-BCA protein assay kit (Thermo Scientific-Piece Biotechnology, Rockford, Ill.) according to the manufacturer's protocol.
One hundred micrograms of skeletal muscle proteins were subjected to SDS-PAGE gel separation and then transferred to PVDF membranes, as described previously (Reddy et al. 2008 Science). Membranes were blocked in a phosphate-buffered saline (PBS) containing 5% (w/v) of bovine serum albumin (Sigma, St. Louis, Mo.) and incubated with specific primary antibodies followed by the incubation with HRP-conjugated anti-mouse or anti-rabbit secondary antibodies (1:5000 dilution, Cell Signaling Inc.). All primary antibodies were purchased from Cell Signaling Inc, except the antibodies against β-tubulin (LI-COR bioscience). Positive signals on the membrane blots were detected using Amersham's enhanced chemiluminescence Western Blotting Prime Detection reagents (GE Healthcare Lifescience, Pittsburgh, Pa.). Images of these luminescence signals on the membrane blots were captured using the LI-COR Odyssey Fc Image system (Lincoln, Nebr.). The same membrane blot was stripped and re-blotted with another antibody as described in the GE WB ECL-prime-detection protocol (GE healthcare Lifescience, Pittsburgh, Pa.). Protein band densities in the Western blots were determined using the NIH ImageJ software and then normalized by β-tubulin level in each sample. Data are presented as mean±SEM of 5 animal samples.

[3] = system: differentiated C2C12 cells; assay: Glucose uptake in differentiated C2C12 (skeletal muscle) cells; format: cell-based, mouse
Method: The mouse myoblast C2C12 cells were purchased from the American Type Culture Collection (ATCC, Manassas, Va.). These cells were amplified in DMEM media supplemented with 10% FBS. Equal number of C2C12 cells were then seeded on 96-well plates (5000 cells/well) and cultured in 10% FBS DMEM media at 37° C. for 5 days. Cells were replenished daily with fresh 10% FBS DMEM media. At day 5 of culture, C2C12 cells were differentiated using 0.5% horse serum (Sigma)-containing DMEM media (differentiation media) continuing for 7 days with daily replacement of fresh differentiation media, as previously described (Misu et al, Cell Metabolism 12, 483-495, 2010). At day 7 post-differentiation, differentiated C2C12 cells were rinsed with PBS twice and pretreated without or with 0.006% DMSO (Compound #43 solvent) or Compound #43 (300 or 600 ppb) in serum-free glucose-free DMEM media overnight. Then these cells were washed once with PBS, and then treated without (basal) or with insulin (200 nM), Compound #43 (300 and 600 ppb), or both insulin and Compound #43 in glucose/phenol red-free DMEM media at 37° C. for 1.5 hr. After treatment, media was removed and cells were washed once with PBS and incubated with 1 mM 2-deoxyglucose (2DG) at room temperature for 30 min. […] Luminescent signals were recorded using a Bio-Tek luminometer.

C[Se]C[C@H]1O[C@@H](n2cnc3c(N)ncnc32)C(OC(C)=O)C1OC(C)=O (stereo partly drawn) [Compound #43, Adenosine, 5′-Se-methyl-5′-selino-, 2′,3′-diacetate]
IC50 ([1]; Rattus norvegicus, H4IIE, 24 h, read-out: IC50 (inhibition of glucose production)): 17.8 µM | potency relative to metformin in inhibition of glucose production ([1]; cultured rat liver cells): at least 15 times | effect on glucose production in H4IIE cells ([1]; serum-free, 24 hr (FIG. 2)): dose-dependent decrease in glucose production | pAkt protein levels in skeletal muscle [2]: significantly elevated | pFoxo1 protein levels in skeletal muscle [2]: significantly elevated | total Akt and Foxo1 protein levels in skeletal muscle [2]: no significant change | pPdk1 protein levels in skeletal muscle ([2]; P=0.11): approached statistical significance | increase in glucose uptake ([3]; co-treatment insulin 200 nM and Compound #43 300 ppb): 63% | increase of glucose uptake ([3]; co-treatment insulin 200 nM and Compound #43 600 ppb): 79%
